Laboratory results from patent EP1457483A1, “Cationic lipids with serine backbone” (Ruhr-Universität Bochum, priority 2003, dated 2004).

System: COS-7 cells
Test: Automated lipofection screening: GFP-luciferase reporter gene transfer (luciferase activity per protein content)
Type: cell-based, African green monkey
Details: for Maximum transfection efficiency, MW (mean value), Helper lipid: DOPE / Maximum transfection efficiency, MW (mean value), Helper lipid: CHOL / Maximum transfection efficiency, MW (mean value), Helper lipid: without: pEGFPLuc plasmid, point is thousands separator; for Maximum transfection efficiency, MW (mean value), Helper lipid: DOPE: cationic/helper lipid 1:0.5 with DOPE; for Maximum transfection efficiency, MW (mean value), Helper lipid: DOPE / Maximum transfection efficiency, MW (mean value), Helper lipid: CHOL: at the LDR giving the maximum; for Maximum transfection efficiency, MW (mean value), Helper lipid: CHOL: cationic/helper lipid 1:0.5 with cholesterol; for Maximum transfection efficiency, MW (mean value), Helper lipid: without: no helper lipid, at the LDR (1:1-15:1) giving the maximum
Method: Screening the combinatorial lipid library for lipofection properties: Goal of this first step was to compare transfection efficiency of these structurally related cationic lipids with systematically modified hydrocarbon chain compositions for the development of suitable lipofection reagents and protocols and to study the relationship between structure and transfection efficiency of this new class of cationic lipids for gene transfer. All lipids (MS-1 to MS-50, table 1) were tested using a standard protocol: From each lipid, twenty four different lipoplexes were formed containing either no helper lipid or the helper lipids DOPE and CHOL at molar amounts (1:0.5), respectively, using eight different lipid:DNA-charge ratios (LDR) from 1:1 - 15:1, resulting in a lipofection profile for each lipid. The COS-7 cell-line was used for this lipofection study since COS-7 is easy to transfect and differences between the lipids are easy to identify.
Cell culture: SV40 transformed African green monkey kidney cell line COS-7 (ATCC CRL-1651) was routinely passaged in DMEM (GIBCO BRL, Karlsruhe, Germany), respectively, supplemented with 1% L-glutamin solution (100x), 1% Penicillin/Streptomycin solution (100x) (GIBCO BRL, Karlsruhe, Germany), and 10% FCS (BioWhittaker, Verviers, Belgium) at 37°C with 5% CO2 in humidified atmosphere. For the screening cells were maintained in 96-well culture plates (Greiner, Frickenhausen, Germany) in 100 µl DMEM, 10 % FCS, 1 % Penicillin-streptomycin in a humidified atmosphere at 37 °C/5 % CO2. 24 h prior to transfection, the cells were seeded into the microtiter plate at 10,000 cells per well to reach a confluency of 50 % at the time of transfection. Dendritic cells: Dendritic cells (DC) were derived from highly purified circulating CD14(+) monocytes: In a first step, peripheral blood mononuclear leukocytes (PBL) from healthy control persons were isolated by Ficoll-Paque (Pharmacia Biotech AB, Uppsala, Sweden) density centrifugation. The following immunomagnetic purification of the monocytes from PBL was performed using CD14 Microbeads and MiniMACS high gradient magnetic separation columns (Miltenyi Biotech, Bergisch Gladbach, Germany) according to manufacturer's instructions. Isolated monocytes (5 x 10^5/well) were cultured in RPMI supplemented with 10 % FCS, or serum-free Macrophage-SFM medium (GIBCO BRL, Karlsruhe, Germany) supplemented with human recombinant GM-CSF (0.05µg/ml) and IL-4 (0.025µg/ml) (PromoCell, Heidelberg, Germany) in 6-well plates. Aliquots of the cells were reanalyzed by FACS with anti-CD14 mAbs (Pharmingen, San Diego, CA). After 5-6 days non-adherent cells were collected and purity of DCs was determined by FACS analysis using a FACSort flow cytometer (Becton Dickinson, Mountain View, CA) and the CellQuest software for data processing as recently described (Jantscheff, P. et al., J. Immunol. Methods 163(1):91-7 (1993)).

Compound	Maximum transfection efficiency, MW (mean value), Helper lipid: DOPE	Maximum transfection efficiency, MW (mean value), Helper lipid: CHOL	Maximum transfection efficiency, MW (mean value), Helper lipid: without	times higher activity in only one of the helper lipid combinations (best combination against the other combinations)
CCCCCCCCCCCCCC[N+](C)(CCCCCCCCCCCCCC)[C@@H](CO)C(=O)NCCN [compound 27]	196.400 RLU	311.891 RLU	21.934 RLU	
CCCCCCCCCCCCCCCC[N+](C)(CCCCCCCCCCCCCCCC)[C@@H](CO)C(=O)NCCCCCCN [compound 48]	73.318 RLU	96.148 RLU	62.022 RLU	
CCCCCCCCCCCCCCCC[N+](C)(CCCCCCCCCCCCCCCC)[C@@H](CO)C(=O)NCCCN [compound 33]	201.586 RLU	372.446 RLU	49.603 RLU	
CCCCCCCC/C=C\CCCCCCCCN(CCCCCCCC/C=C\CCCCCCCC)[C@@H](CO)C(=O)NCCCCCCN [compound 25]	44.451 RLU	12.225 RLU	23.710 RLU	
CCCCCCCCCCCCN(CCCCCCCCCCCC)[C@@H](CO)C(=O)NCCCCCCN [compound 21]	308.849 RLU	190.171 RLU	118.131 RLU	
CCCCCCCC/C=C\CCCCCCCC[N+](C)(CCCCCCCC/C=C\CCCCCCCC)[C@@H](CO)C(=O)NCCN [compound 30]	57.187 RLU	251.177 RLU	99.415 RLU	
CCCCCCCC/C=C\CCCCCCCCN(CCCCCCCC/C=C\CCCCCCCC)[C@@H](CO)C(=O)NCCCN [compound 10]	92.769 RLU	28.835 RLU	13.461 RLU	
CCCCCCCCCCCCN(CCCCCCCCCCCC)[C@@H](CO)C(=O)NCCN [compound 1]	172.116 RLU	264.581 RLU	211.937 RLU	
CCCCCCCCCCCCCCCCCC[N+](C)(CCCCCCCCCCCCCCCCCC)[C@@H](CO)C(=O)NCCCCCN [compound 44]	1.712 RLU	28.104 RLU	3.542 RLU	
CCCCCCCCCCCCCCCC[N+](C)(CCCCCCCCCCCCCCCC)[C@@H](CO)C(=O)NCCCCCN [compound 43]	169.621 RLU	222.652 RLU	6.944 RLU	
CCCCCCCCCCCCCCCC[N+](C)(CCCCCCCCCCCCCCCC)[C@@H](CO)C(=O)NCCCN [MS-33]				2.5 - 11.5 times
CCCCCCCC/C=C\CCCCCCCCN(CCCCCCCC/C=C\CCCCCCCC)[C@@H](CO)C(=O)NCCN [compound 5]	22.324 RLU	7.344 RLU	7.395 RLU	
CCCCCCCCCCCCCCCCN(CCCCCCCCCCCCCCCC)[C@@H](CO)C(=O)NCCN [compound 3]	18.255 RLU	66.096 RLU	4.049 RLU	
CCCCCCCCCCCCCCCCN(CCCCCCCCCCCCCCCC)[C@@H](CO)C(=O)NCCCCN [compound 13]	30.635 RLU	42.604 RLU	15.287 RLU	
CCCCCCCCCCCCCCN(CCCCCCCCCCCCCC)[C@@H](CO)C(=O)NCCCCN [compound 12]	167.970 RLU	274.483 RLU	440.931 RLU	
CCCCCCCCCCCCCCCCN(CCCCCCCCCCCCCCCC)[C@@H](CO)C(=O)NCCCN [compound 8]	38.086 RLU	22.428 RLU	6.244 RLU	
CCCCCCCCCCCCCCCCCC[N+](C)(CCCCCCCCCCCCCCCCCC)[C@@H](CO)C(=O)NCCCCCCN [compound 49]	7.563 RLU	10.245 RLU	2.177 RLU	
CCCCCCCCCCCCN(CCCCCCCCCCCC)[C@@H](CO)C(=O)NCCCCCN [compound 16]	49.071 RLU	45.849 RLU	442 RLU	
CCCCCCCC/C=C\CCCCCCCCN(CCCCCCCC/C=C\CCCCCCCC)[C@@H](CO)C(=O)NCCCCN [compound 15]	340.414 RLU	243.273 RLU	232.694 RLU	
CCCCCCCCCCCCN(CCCCCCCCCCCC)[C@@H](CO)C(=O)NCCCN [compound 6]	6.392 RLU	583 RLU	944 RLU	
CCCCCCCCCCCCCC[N+](C)(CCCCCCCCCCCCCC)[C@@H](CO)C(=O)NCCCCCN [compound 42]	72.349 RLU	181.719 RLU	832 RLU	
CCCCCCCCCCCCCCCC[N+](C)(CCCCCCCCCCCCCCCC)[C@@H](CO)C(=O)NCCCCN [compound 38]	71.641 RLU	156.698 RLU	30.747 RLU	
CCCCCCCCCCCCCCN(CCCCCCCCCCCCCC)[C@@H](CO)C(=O)NCCCCCCN [compound 22]	164.165 RLU	241.264 RLU	237.631 RLU	
CCCCCCCCCCCCCCCC[N+](C)(CCCCCCCCCCCCCCCC)[C@@H](CO)C(=O)NCCN [compound 28]	190.444 RLU	461.747 RLU	171.272 RLU	
CCCCCCCCCCCCCCCCCCN(CCCCCCCCCCCCCCCCCC)[C@@H](CO)C(=O)NCCCCCCN [compound 24]	21.009 RLU	20.328 RLU	920 RLU	
CCCCCCCCCCCCCC[N+](C)(CCCCCCCCCCCCCC)[C@@H](CO)C(=O)NCCCN [compound 32]	225.268 RLU	447.443 RLU	2.075 RLU	
CCCCCCCCCCCCCCCCN(CCCCCCCCCCCCCCCC)[C@@H](CO)C(=O)NCCCCCN [compound 18]	26.400 RLU	42.592 RLU	22.150 RLU	
CCCCCCCC/C=C\CCCCCCCC[N+](C)(CCCCCCCC/C=C\CCCCCCCC)[C@@H](CO)C(=O)NCCCCCN [compound 45]	69.821 RLU	64.111 RLU	14.092 RLU	
